Data reported in US20090105278A1, “Selective inhibitors of human corticosteroid syntheses” (Universitat Des Saarlandes, priority 2004, published 2009).
Counter-ions that a name gives are not always drawn.

Assays:
human CYP11B2 [1] = biological target: T1, human CYP11B2 (Homo sapiens, UniProt P19099); assay: Screening test in transgenic fission yeast (S. pombe PE1) expressing human CYP11B2; assay type: cell-based; parameters: expressed in transfected cells; settings: S. pombe cells which express human CYP11B2, deoxycorticosterone substrate 100 nM, inhibitor 500 nM
T1 sequence (P19099 25-503): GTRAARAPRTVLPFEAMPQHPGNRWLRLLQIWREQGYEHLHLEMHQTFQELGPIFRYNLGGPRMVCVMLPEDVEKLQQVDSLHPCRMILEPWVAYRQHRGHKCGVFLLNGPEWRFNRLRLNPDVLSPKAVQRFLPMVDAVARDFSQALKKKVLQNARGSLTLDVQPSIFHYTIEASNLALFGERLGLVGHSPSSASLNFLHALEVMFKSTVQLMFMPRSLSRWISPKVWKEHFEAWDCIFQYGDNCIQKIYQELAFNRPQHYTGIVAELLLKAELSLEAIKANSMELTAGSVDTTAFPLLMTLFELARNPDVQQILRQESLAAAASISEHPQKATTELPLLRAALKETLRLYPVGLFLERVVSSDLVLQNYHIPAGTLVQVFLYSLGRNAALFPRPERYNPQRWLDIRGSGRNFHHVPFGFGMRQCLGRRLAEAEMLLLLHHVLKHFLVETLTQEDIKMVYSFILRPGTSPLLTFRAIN
Procedure: 492.5 μl of this cell suspension was admixed with 5 μl of inhibitor solution (50 μM of the compound to be tested in ethanol or DMSO) and incubated at 32° C. for 15 min. Controls were admixed with 5 μl of ethanol. […] The test was quenched by extracting the sample with 500 μl of EtOAc. After centrifugation (10,000 g, 2 min), the EtOAc phase was removed and evaporated to dryness. […] The reaction of the substrate to form corticosterone was analyzed by HPTLC (see below).
The quantification of the spots for the substrate deoxycorticosterone and the products corticosterone (and, if detectable, 18-hydroxycorticosterone and aldosterone) was effected with the related evaluation program AIDA. […] The calculation of the conversion rate was effected according to equation 1.
(§1) The plate was developed twice with the mobile solvent chloroform:methanol:water (300:20:1). Unlabeled 11-deoxycorticosterone and corticosterone were applied as a reference for the CYP11B1 reaction. For the CYP11B2 reaction, 11-deoxycorticosterone, corticosterone, 18-hydroxycorticosterone and aldosterone were used as references. The detection of the unlabeled references was effected at 260 nm. Subsequently, imaging plates (BAS MS2340, for ^14C samples, Raytest, Straubenhardt, Germany) were exposed to the HPTLC plates for 48 h. The imaging plates were scanned with the phosphoimager system Fuji FLA 3000 (Raytest, Straubenhardt, Germany), and the steroids were quantified.

human CYP17 = biological target: T2, human CYP17 (Homo sapiens, UniProt P05093); assay: Percent inhibition of CYP17 (membrane fraction of E. coli pJL17/OR); assay type: biochemical; settings: E. coli which expresses human CYP17; 5 mg/ml protein; progesterone substrate 2.5 μM; inhibitor 2.5 μM; read-out: % Inhibition human CYP17
T2 construct: made in house; host or cells: E. coli pJL17/OR (membrane fraction)
T2 sequence (P05093 1-508): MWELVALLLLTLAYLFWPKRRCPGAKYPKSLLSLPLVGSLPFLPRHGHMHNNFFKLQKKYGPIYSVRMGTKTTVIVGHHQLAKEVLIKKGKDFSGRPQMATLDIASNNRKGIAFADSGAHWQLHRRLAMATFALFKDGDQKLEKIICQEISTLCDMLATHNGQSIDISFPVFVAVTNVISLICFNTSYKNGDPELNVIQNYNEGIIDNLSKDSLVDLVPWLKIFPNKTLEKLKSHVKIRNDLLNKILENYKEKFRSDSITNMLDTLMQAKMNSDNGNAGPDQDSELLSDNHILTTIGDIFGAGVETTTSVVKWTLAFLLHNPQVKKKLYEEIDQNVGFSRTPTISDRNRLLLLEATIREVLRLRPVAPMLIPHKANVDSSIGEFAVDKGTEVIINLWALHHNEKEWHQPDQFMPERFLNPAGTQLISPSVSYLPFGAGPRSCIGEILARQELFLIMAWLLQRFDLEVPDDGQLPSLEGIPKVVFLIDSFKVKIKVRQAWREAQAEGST
Procedure: The recombinantly altered E. coli strain pJL17/OR, in which human CYP17 and rat NADPH-P450-reductase were coexpressed, was grown and stored according to the method of Ehmer et al. (Ehmer, P. B. et al., J. Steroid Biochem. Mol. Biol. 75: 57-63 (2000)). For isolating the membrane fraction, 5 ml of the bacterial cell suspension with an OD578 of 50 was washed with phosphate buffer (0.05 M; pH 7.4; 1 mM MgCl2; 0.1 mM EDTA and 0.1 mM DTT). The bacteria were removed by centrifugation and resuspended in 10 ml of ice cold TES buffer (0.1 M tris-acetate; pH 7.8; 0.5 mM EDTA; 0.5 M sucrose). Four milligrams of lysozyme in 10 ml of ice cold water was added to obtain a final concentration of 0.2 mg/ml. This was followed by incubation for 30 minutes under continued shaking on ice. The spheroblasts were obtained by a renewed centrifugation step at 12,000 g for 10 min and again resuspended in 3 ml of ice cold phosphate buffer (composition see above, additionally 0.5 mM PMSF).
After freezing and thawing, the cells were lysed on ice with an ultrasonic disintegrator. The whole cells and the cell debris were centrifuged off at 3000 g for 7 min. The supernatant was again centrifuged at 50,000 g for 20 min at 4° C. A membrane pellet sedimented and was resuspended in 2 ml of phosphate buffer (composition see above) with […] by means of an Ultra-Turrax mixer. […] Aliquots with an approximate protein concentration of 5 mg/ml were stored at −70° C. until use.
Control incubations were performed in parallel with 5 μl DMSO without urea. The reaction was started by adding 50 μl of a membrane suspension diluted 1 to 5 in phosphate buffer (0.8 to 1 mg of protein per ml). After thoroughly mixing the components, the mixture was incubated at 37° C. for 30 min.
The steroids were extracted with 1 ml of EtOAc. […] After the centrifugation, 800 μl of the organic phase was removed, placed into a new vessel and evaporated to dryness. The samples were dissolved in 50 μl of a water-methanol mixture (1:1) and analyzed by HPLC. The substrate conversion was calculated from the ratio of the areas of the product peaks (17α-hydroxyprogesterone and 16α-hydroxyprogesterone) to that of the substrate peak. The activity of the inhibitors was calculated from the reduced substrate conversion after the addition of inhibitors in accordance with the following formula: […]

human placental CYP19 = biological target: T3, human placental CYP19 (Homo sapiens, UniProt P11511); assay: IC50 of CYP19 (human placental microsomes); assay type: biochemical; settings: human placental CYP19; testosterone substrate 2.5 μM
T3 construct: The enzyme was obtained from the microsome fraction of fresh human placenta; from tissue; host or cells: human placenta, microsomal fraction
T3 sequence (P11511 1-503): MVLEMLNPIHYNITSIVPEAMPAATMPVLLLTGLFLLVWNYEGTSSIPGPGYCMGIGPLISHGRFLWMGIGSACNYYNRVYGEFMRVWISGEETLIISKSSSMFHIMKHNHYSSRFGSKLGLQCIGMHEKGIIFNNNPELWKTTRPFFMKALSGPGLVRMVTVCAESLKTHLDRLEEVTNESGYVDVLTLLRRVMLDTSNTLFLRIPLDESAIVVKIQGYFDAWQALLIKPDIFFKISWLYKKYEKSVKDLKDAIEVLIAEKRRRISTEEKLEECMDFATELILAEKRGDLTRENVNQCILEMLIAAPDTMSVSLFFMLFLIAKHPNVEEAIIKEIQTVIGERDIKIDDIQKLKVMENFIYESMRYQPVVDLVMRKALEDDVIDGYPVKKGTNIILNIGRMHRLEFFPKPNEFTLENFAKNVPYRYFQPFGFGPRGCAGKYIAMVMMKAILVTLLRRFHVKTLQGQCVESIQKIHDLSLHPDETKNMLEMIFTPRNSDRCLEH
Procedure: The isolated microsomes were suspended in a minimum volume of phosphate buffer (0.05 M; pH 7.4; […]). In addition, DTT (10 mM) and EDTA (1 mM) were added to protect the enzyme from degradation reactions.
[…] […] The compounds to be tested were dissolved in DMSO and diluted with buffer to the desired concentration. The final DMSO concentration of the control and inhibitor incubations was about 20%. Each vessel was preincubated in a water bath at 30° C. for 5 min. The reaction was started by adding the microsomal protein (0.1 mg). The total volume of each mixture was 200 μl. After 14 min, the reaction was quenched by adding 200 μl of ice cold 1 mM HgCl2 solution. Two hundred microliters of a 2% aqueous suspension of dextran-coated charcoal, DCC) was added for absorbing the steroids, and the vessels were shaken for 20 min. Thereafter, the charcoal was centrifuged off at 1500 g for 5 min. The radioactive water present in the supernatant (^3H2O) was assayed by scintillation measurement using an LKB-Wallac beta counter. The calculation of the IC50 values was effected by a semilogarithmic plot of the percent inhibition against the inhibitor concentration.

human CYP11B2 [2] = biological target: T1, human CYP11B2; assay: V79 MZh 11B2 cells inhibition test; assay type: cell-based; parameters: expressed in transfected cells; host or cells: V79 MZh11B2 (Chinese hamster lung fibroblasts); settings: for IC50: hamster fibroblasts which express human CYP11B2, deoxycorticosterone substrate 100 nM, read-out: IC50 V79 11B2 hCYP11B2
Procedure: (§2) Both cell lines were cultured in DMEM^+ containing […] and the antibiotics penicillin and streptomycin (10%) for protection from bacterial contamination. The cells were passaged every 2-3 days after treatment with trypsin/EDTA because the doubling rate was 1-2 days depending on the number of cells. […] When there was further need, freshly thawed cells were employed.
(§3) Thereafter, the plate was stored at 37° C. and […] in a CO2 incubator. The V79 MZh 11B1 cells were incubated for 120 min, and the V79 MZh 11B2 cells were incubated for 40 min. Controls without inhibitor were treated in the same way. The enzyme reactions were quenched by extracting the supernatant with 500 μl of EtOAc. The samples were centrifuged (10,000 g, 2 min), the solvent was removed and evaporated.
For V79 MZh11B2, the conversion rate was obtained in accordance with equation 3: […]
(§4) It was calculated by determining the percent inhibition for at least 3 different inhibitor concentrations, which must all be in the linear range of the sigmoidal IC50 curve (log C/% inhibition).
(§5) The calculation was effected by linear regression. The values determined were used only if they formed a straight line with a reliability of […].
as §1

human CYP11B1 = biological target: T4, human CYP11B1 (Homo sapiens, UniProt P15538); assay: V79 MZh 11B1 cells inhibition test; assay type: cell-based; settings: for IC50: hamster fibroblasts which express human CYP11B1, deoxycorticosterone substrate 100 nM, read-out: IC50 V79 11B1 hCYP11B1
T4 construct: expressed in transfected cells; host or cells: V79 MZh11B1 (Chinese hamster lung fibroblasts)
T4 sequence (P15538 25-503): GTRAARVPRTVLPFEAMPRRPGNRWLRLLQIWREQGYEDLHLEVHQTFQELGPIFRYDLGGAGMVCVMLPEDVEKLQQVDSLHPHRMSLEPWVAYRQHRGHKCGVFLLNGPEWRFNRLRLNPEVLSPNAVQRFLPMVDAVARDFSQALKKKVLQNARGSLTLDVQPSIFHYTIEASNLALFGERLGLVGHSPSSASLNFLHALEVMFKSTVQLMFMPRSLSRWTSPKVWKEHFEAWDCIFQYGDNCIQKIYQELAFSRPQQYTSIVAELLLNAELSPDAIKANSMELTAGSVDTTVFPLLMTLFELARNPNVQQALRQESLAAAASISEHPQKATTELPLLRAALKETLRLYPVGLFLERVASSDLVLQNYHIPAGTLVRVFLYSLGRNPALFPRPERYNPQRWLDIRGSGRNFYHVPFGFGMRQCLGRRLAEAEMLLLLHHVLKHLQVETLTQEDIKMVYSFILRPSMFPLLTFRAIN
Procedure: as §2
as §3, with “The V79 MZh 11B1 cells were incubated for 120 min, and the V79 MZh 11B2 cells were incubated for 40 min.” left out
as §4, §5, §1

`COc1cc2c(cc1OC)/C(=C/c1cccnc1)CCC2.Cl` gave a melting point of 197 °C.
With `COc1cc2c(cc1OC)/C(=C/c1ccncc1)CCC2.Cl` the melting point was 197 °C.
`C(=C1c2ccccc2-c2ccccc21)c1cccnc1.Cl` gave a melting point of 241 °C.
With `Cl.N#Cc1ccc2c(c1)/C(=C/c1cnc[nH]1)CCC2` the melting point was 217 °C.
`N#Cc1ccc2c(c1)/C(=C\c1cnc[nH]1)CCC2.O=C(O)C(=O)O` gave a melting point of 197 °C.
In the case of `Fc1ccc2c(c1)CC/C2=C\c1cnc[nH]1` (as salt: chloride) [Compound 47a, 5-[(E)-(5-Fluoro-2,3-dihydro-1H-indene-1-ylidenemethyl]-1H-imidazolium chloride], the melting point is reported as 245 °C.
Work on `Fc1ccc2c(c1)CC/C2=C\c1cccnc1` (as salt: hydrochloride) [Compound 5a, 3-[(E)-(5-Fluoro-2,3-dihydro-1H-indane-1-ylidene)methyl]pyridine Hydrochloride] yielded a melting point of 245 °C.
For `C(=C1/CCc2ccccc21)/c1ccncc1` [Compound 2a, 4-[(E)-2,3-Dihydro-1H-indane-1-ylidenemethyl]pyridine Oxalate], the inhibition at 0.5 µM (human CYP11B2 [1]; read-out: % Inhibition human hCYP11B2) was 55%, the inhibition at 2.5 µM (human CYP17) was 8% and the IC50 (human placental CYP19) was 6700 nM.
With `C/C(=C1/CCc2ccccc21)c1cccnc1.Cl` [Compound 38a, 3-[(1E)-1-(2,3-Dihydro-1H-indane-1-ylidene)ethyl]pyridine Hydrochloride] the “% Inhibition human hCYP11B2” value (human CYP11B2 [1]) was 67%, the IC50 (human CYP11B2 [2]) was 96.1 nM and the IC50 (human CYP11B1) was 159 nM.
For `c1cncc(-c2ccc3cccc4c3c2CC4)c1` [Compound 50, 3-(1,2-Dihydroacenaphthylene-3-yl)pyridine], the “Selectivity factor IC50 (CYP11B1)/IC50 (CYP11B2)” value (human CYP11B2 [2]; V79 cells expressing human CYP11B1 or CYP11B2) was 245, the IC50 (human CYP11B2 [2]) was 10 nM and the “Inhibition of human CYP11B1, in words” value (human CYP11B1; V79 cells) was “very weak inhibition”. It also gave an IC50 (human CYP11B1) of 2450 nM.
